Data taken from PMC3104124 (Journal of molecular biology, 2011).

Molecular target: T1, Ste2p (wild type, C-terminally truncated) (Saccharomyces cerevisiae, UniProt D6VTK4)
T1 sequence (D6VTK4 1-304): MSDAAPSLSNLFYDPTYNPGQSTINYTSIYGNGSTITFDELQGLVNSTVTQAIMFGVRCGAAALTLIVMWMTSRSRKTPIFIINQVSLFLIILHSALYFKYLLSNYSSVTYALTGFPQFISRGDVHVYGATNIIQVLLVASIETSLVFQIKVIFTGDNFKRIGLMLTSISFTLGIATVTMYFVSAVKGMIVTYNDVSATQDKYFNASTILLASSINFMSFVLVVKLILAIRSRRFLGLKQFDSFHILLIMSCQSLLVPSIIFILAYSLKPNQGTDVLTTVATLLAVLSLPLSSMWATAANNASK
Assay: Fluorescent ligand binding
Settings: FL1/FL2 emission of the ligand labeled with NBD at Lys7, bound to normal Ste2p; normalised to [Lys^7(NBD),Nle^12]α-factor

Substance	Relative Bmax Ratio
[des-Trp^1,Ala^3,Nle^12]α-factor	0.49 ± 0.03
[desTrp^1,desHis^2,Nle^12]α-factor	0.42 ± 0.05
